Data as given in ChEMBL document CHEMBL1201862, “PubChem BioAssay data set” (2004).
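Cultured in 96-well plates, cells were exposed to test compound for 48 hours across five concentrations. GI50 marks 50% less growth.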 Activity calls are given as the source filed them. Cut-off read from the data, not from the text of the source: active = GI50 up to about 1.1 µM and inactive = higher.

Key:
Assay in all cases: growth of human tumour cells (NCI), 48 h
Hs-578T = tested on: Hs-578T
LOX IMVI = tested on: LOX IMVI
OVCAR-5 = tested on: OVCAR-5
UACC-62 = tested on: UACC-62
HL-60 = tested on: HL-60
COLO 205 = tested on: COLO 205
U-251 = tested on: U-251
786-0 = tested on: 786-0
KM12 = tested on: KM12
SK-MEL-28 = tested on: SK-MEL-28
SN12C = tested on: SN12C
EKVX = tested on: EKVX
OVCAR-8 = tested on: OVCAR-8
OVCAR-3 = tested on: OVCAR-3
NCI/ADR-RES = tested on: NCI/ADR-RES
NCI-H522 = tested on: NCI-H522
SF-268 = tested on: SF-268
HOP-62 = tested on: HOP-62
OVCAR-4 = tested on: OVCAR-4
NCI-H23 = tested on: NCI-H23
SNB-19 = tested on: SNB-19
SK-OV-3 = tested on: SK-OV-3
CAKI-1 = tested on: CAKI-1
NCI-H460 = tested on: NCI-H460
HT-29 = tested on: HT-29
BT-549 = tested on: BT-549
UO-31 = tested on: UO-31
A549 = tested on: A549
MDA-N = tested on: MDA-N
RXF 393 = tested on: RXF 393
HCT-116 = tested on: HCT-116
DU-145 = tested on: DU-145
SK-MEL-5 = tested on: SK-MEL-5
T47D = tested on: T47D
ACHN = tested on: ACHN
RPMI-8226 = tested on: RPMI-8226
K562 = tested on: K562
A498 = tested on: A498
HCT-15 = tested on: HCT-15
TK-10 = tested on: TK-10
CCRF-CEM = tested on: CCRF-CEM
MCF7 = tested on: MCF7
HCC 2998 = tested on: HCC 2998
PC-3 = tested on: PC-3
SF-539 = tested on: SF-539
UACC-257 = tested on: UACC-257
MDA-MB-231 = tested on: MDA-MB-231
Malme-3M = tested on: Malme-3M
M14 = tested on: M14
HOP-92 = tested on: HOP-92
MDA-MB-435 = tested on: MDA-MB-435
NCI-H226 = tested on: NCI-H226
SR = tested on: SR
MOLT-4 = tested on: MOLT-4
SNB-75 = tested on: SNB-75
SK-MEL-2 = tested on: SK-MEL-2
IGROV-1 = tested on: IGROV-1
SF-295 = tested on: SF-295
SW-620 = tested on: SW-620

O=C(CC(O)c1cccnc1)CC(O)c1cccnc1 (configuration not stated)
GI50 (Hs-578T): 28.4 µM (inactive)
GI50 (LOX IMVI): 5.18 µM (inactive)
GI50 (OVCAR-5): 24.2 µM (inactive)
GI50 (UACC-62): 16.6 µM (inactive)
GI50 (HL-60): 3.17 µM (inactive)
GI50 (COLO 205): 14.1 µM (inactive)
GI50 (U-251): 16.5 µM (inactive)
GI50 (786-0): 16.3 µM (inactive)
GI50 (KM12): 11.1 µM (inactive)
GI50 (SK-MEL-28): 19.5 µM (inactive)
GI50 (SN12C): 18.6 µM (inactive)
GI50 (EKVX): 20.9 µM (inactive)
GI50 (OVCAR-8): 15.3 µM (inactive)
GI50 (OVCAR-3): 14.7 µM (inactive)
GI50 (NCI/ADR-RES): 24 µM (inactive)
GI50 (NCI-H522): 13.4 µM (inactive)
GI50 (SF-268): 25.5 µM (inactive)
GI50 (HOP-62): 21.9 µM (inactive)
GI50 (OVCAR-4): 20.7 µM (inactive)
GI50 (NCI-H23): 22.5 µM (inactive)
GI50 (SNB-19): 21.7 µM (inactive)
GI50 (SK-OV-3): 17.5 µM (inactive)
GI50 (CAKI-1): 17.7 µM (inactive)
GI50 (NCI-H460): 19.7 µM (inactive)
GI50 (HT-29): 7.05 µM (inactive)
GI50 (BT-549): 11.7 µM (inactive)
GI50 (UO-31): 17.4 µM (inactive)
GI50 (A549): 20.6 µM (inactive)
GI50 (MDA-N): 7.26 µM (inactive)
GI50 (RXF 393): 16.7 µM (inactive)
GI50 (HCT-116): 2.04 µM (inactive)
GI50 (DU-145): 32.2 µM (inactive)
GI50 (SK-MEL-5): 16.1 µM (inactive)
GI50 (T47D): 26.5 µM (inactive)
GI50 (ACHN): 17.8 µM (inactive)
GI50 (RPMI-8226): 3.29 µM (inactive)
GI50 (K562): 2.75 µM (inactive)
GI50 (A498): 15.9 µM (inactive)
GI50 (HCT-15): 14.1 µM
GI50 (TK-10): > 55.1 µM (inactive)
GI50 (CCRF-CEM): 3.02 µM (inactive)
GI50 (MCF7): 4.34 µM (inactive)
GI50 (HCC 2998): 3.82 µM (inactive)
GI50 (PC-3): 15.8 µM (inactive)
GI50 (SF-539): 21.2 µM (inactive)
GI50 (UACC-257): 18.1 µM (inactive)
GI50 (MDA-MB-231): 14.9 µM (inactive)
GI50 (Malme-3M): 18.4 µM (inactive)
GI50 (M14): 14.2 µM (inactive)
GI50 (HOP-92): 17.4 µM (inactive)
GI50 (MDA-MB-435): 16.4 µM (inactive)
GI50 (NCI-H226): 45.7 µM (inactive)
GI50 (SR): 2.78 µM (inactive)
GI50 (MOLT-4): 3.49 µM (inactive)
GI50 (SNB-75): 14.5 µM (inactive)
GI50 (SK-MEL-2): 18.9 µM (inactive)
GI50 (IGROV-1): 14.8 µM (inactive)
GI50 (SF-295): 15.4 µM (inactive)
GI50 (SW-620): 4.97 µM (inactive)

Cc1cc(Cl)ccc1Nc1sc(C(=O)c2cc3cc(Cl)ccc3o2)c(N)c1C#N
GI50 (Hs-578T): > 100 µM (inactive)
GI50 (LOX IMVI): > 100 µM (inactive)
GI50 (OVCAR-5): > 43.7 µM (inactive)
GI50 (UACC-62): 6 µM (inactive)
GI50 (HL-60): > 80.5 µM (inactive)
GI50 (COLO 205): > 69.8 µM (inactive)
GI50 (U-251): 4.14 µM (inactive)
GI50 (786-0): 3.83 µM (inactive)
GI50 (KM12): 6.15 µM (inactive)
GI50 (SK-MEL-28): > 28.1 µM (inactive)
GI50 (SN12C): 11.9 µM (inactive)
GI50 (EKVX): 17.9 µM (inactive)
GI50 (OVCAR-8): 11.4 µM (inactive)
GI50 (OVCAR-3): 12.5 µM (inactive)
GI50 (NCI/ADR-RES): 1.82 µM (inactive)
GI50 (NCI-H522): 3.42 µM (inactive)
GI50 (SF-268): 5.3 µM (inactive)
GI50 (HOP-62): 4.86 µM (inactive)
GI50 (OVCAR-4): 3.59 µM (inactive)
GI50 (NCI-H23): 7.41 µM (inactive)
GI50 (SNB-19): 6.89 µM (inactive)
GI50 (SK-OV-3): 14.7 µM (inactive)
GI50 (CAKI-1): 25.1 µM (inactive)
GI50 (NCI-H460): 5.96 µM (inactive)
GI50 (HT-29): 8.67 µM (inactive)
GI50 (BT-549): > 51.9 µM (inactive)
GI50 (UO-31): 34.1 µM (inactive)
GI50 (A549): 5.98 µM (inactive)
GI50 (MDA-N): 79.3 µM (inactive)
GI50 (RXF 393): 27.7 µM (inactive)
GI50 (HCT-116): 18.4 µM (inactive)
GI50 (DU-145): 18.8 µM (inactive)
GI50 (SK-MEL-5): 3.99 µM (inactive)
GI50 (T47D): 16.6 µM (inactive)
GI50 (ACHN): 15.4 µM (inactive)
GI50 (RPMI-8226): 2.27 µM (inactive)
GI50 (K562): 18.7 µM (inactive)
GI50 (A498): 5.6 µM (inactive)
GI50 (HCT-15): 33 µM
GI50 (TK-10): > 35.8 µM (inactive)
GI50 (CCRF-CEM): > 27.1 µM (inactive)
GI50 (MCF7): 8.38 µM (inactive)
GI50 (HCC 2998): 3.1 µM (inactive)
GI50 (PC-3): 6.08 µM (inactive)
GI50 (SF-539): 6.53 µM (inactive)
GI50 (UACC-257): > 61.7 µM (inactive)
GI50 (MDA-MB-231): 4.99 µM (inactive)
GI50 (Malme-3M): 80.5 µM (inactive)
GI50 (M14): 9.57 µM (inactive)
GI50 (HOP-92): 47 µM (inactive)
GI50 (MDA-MB-435): 8.71 µM (inactive)
GI50 (NCI-H226): > 87.7 µM (inactive)
GI50 (SR): > 100 µM (inactive)
GI50 (MOLT-4): > 53.3 µM (inactive)
GI50 (SNB-75): 3.48 µM (inactive)
GI50 (SK-MEL-2): > 44.9 µM (inactive)
GI50 (IGROV-1): 16.3 µM (inactive)
GI50 (SF-295): 4.76 µM (inactive)
GI50 (SW-620): 15.2 µM (inactive)

COC(=O)c1ccccc1C1CN=NC12Cc1ccc(C)cc1C2=O (configuration not stated)
GI50 (Hs-578T): 41.5 µM (inactive)
GI50 (LOX IMVI): 48.1 µM (inactive)
GI50 (OVCAR-5): > 100 µM (inactive)
GI50 (UACC-62): 68.7 µM (inactive)
GI50 (HL-60): 33.3 µM (inactive)
GI50 (COLO 205): 60.8 µM (inactive)
GI50 (U-251): 41.6 µM (inactive)
GI50 (786-0): > 100 µM (inactive)
GI50 (KM12): 37.9 µM (inactive)
GI50 (SK-MEL-28): 67.8 µM (inactive)
GI50 (SN12C): 58.6 µM (inactive)
GI50 (EKVX): 65.8 µM (inactive)
GI50 (OVCAR-8): > 100 µM (inactive)
GI50 (OVCAR-3): 38.6 µM (inactive)
GI50 (NCI/ADR-RES): 36.6 µM (inactive)
GI50 (NCI-H522): 30.5 µM (inactive)
GI50 (SF-268): > 100 µM (inactive)
GI50 (HOP-62): > 100 µM (inactive)
GI50 (OVCAR-4): 32.8 µM (inactive)
GI50 (NCI-H23): 59 µM (inactive)
GI50 (SNB-19): 70.3 µM (inactive)
GI50 (SK-OV-3): > 100 µM (inactive)
GI50 (CAKI-1): 84.5 µM (inactive)
GI50 (NCI-H460): > 100 µM (inactive)
GI50 (HT-29): 42.6 µM (inactive)
GI50 (BT-549): 47.9 µM (inactive)
GI50 (UO-31): 34.7 µM (inactive)
GI50 (A549): 47.6 µM (inactive)
GI50 (MDA-N): 27.7 µM (inactive)
GI50 (RXF 393): 97.7 µM (inactive)
GI50 (HCT-116): 38.6 µM (inactive)
GI50 (DU-145): > 100 µM (inactive)
GI50 (SK-MEL-5): 38.1 µM (inactive)
GI50 (T47D): 29.4 µM (inactive)
GI50 (ACHN): > 100 µM (inactive)
GI50 (RPMI-8226): 49.7 µM (inactive)
GI50 (K562): 46.6 µM (inactive)
GI50 (A498): > 100 µM (inactive)
GI50 (HCT-15): 56.1 µM
GI50 (TK-10): > 100 µM (inactive)
GI50 (CCRF-CEM): > 100 µM (inactive)
GI50 (MCF7): 72.8 µM (inactive)
GI50 (HCC 2998): 64.7 µM (inactive)
GI50 (PC-3): 37.1 µM (inactive)
GI50 (SF-539): > 100 µM (inactive)
GI50 (UACC-257): 93.1 µM (inactive)
GI50 (MDA-MB-231): > 100 µM (inactive)
GI50 (Malme-3M): 86.5 µM (inactive)
GI50 (M14): 65.2 µM (inactive)
GI50 (HOP-92): 38.9 µM (inactive)
GI50 (MDA-MB-435): 33.3 µM (inactive)
GI50 (NCI-H226): 73.1 µM (inactive)
GI50 (SR): 63.8 µM (inactive)
GI50 (MOLT-4): 47.2 µM (inactive)
GI50 (SNB-75): 90.6 µM (inactive)
GI50 (SK-MEL-2): 28.5 µM (inactive)
GI50 (IGROV-1): 63.8 µM (inactive)
GI50 (SF-295): 46.8 µM (inactive)
GI50 (SW-620): 45.2 µM (inactive)
